Where two headings read alike, the source gives them in different places.

The test deals with S6 Ribosomal Protein phosphorylation Ser235/236 in TSC1 null mouse embryo fibroblast (MEF) cells. The experiment in a line: Reverse protein array, S6 Ribosomal Protein phosphorylation in TSC1 null MEF cells. The test is classed as cell-based. The conditions noted are these: 1 h, TSC1-/- MEFs, 60 minutes. The procedure, abridged: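 Phospho-S6 (Ser235/236) was quantified by reverse protein array of cell lysates with a phospho-specific primary antibody. […]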

For `CNC(=O)c1ccc(-c2ccc3ncc4c(c3c2)n(-c2cccnc2C)c(=O)n4C)cc1` [Example 2.4, N-Methyl-4-[3-methyl-1-(2-methyl-pyridin-3-yl)-2-oxo-2,3-dihydro-1H-imidazo[4,5-c]quinolin-8-yl]-benzamide], the IC50 (read-out: p-S6) came to 23.1 nM.
For `COCc1ncc(-c2ccc3ncc4c(c3c2)n(-c2cccnc2C)c(=O)n4C)cc1OC` [Example 2.30, 8-(5-Methoxy-6-methoxymethyl-pyridin-3-yl)-3-methyl-1-(2-methyl-pyridin-3-yl)-1,3-dihydro-imidazo[4,5-c]quinolin-2-one], under “read-out: p-S6 IC50”, the IC50 turned out to be 34 nM.
`Cc1nc(F)ccc1-n1c(=O)n(C)c2cnc3ccc(-c4cncc(N5CCC5)c4)cc3c21` [Example 7.6, 8-(5-Azetidin-1-yl-pyridin-3-yl)-1-(6-fluoro-2-methyl-pyridin-3-yl)-3-methyl-1,3-dihydro-imidazo[4,5-c]quinolin-2-one]: where the note is “read-out: p-S6 IC50”, the IC50 is 7 nM.
In the case of `COCc1ncc(-c2ccc3ncc4c(c3c2)n(-c2ccc(F)nc2C)c(=O)n4C)cc1OC` [Example 7.7, 1-(6-Fluoro-2-methyl-pyridin-3-yl)-8-(5-methoxy-6-methoxymethyl-pyridin-3-yl)-3-methyl-1,3-dihydro-imidazo[4,5-c]quinolin-2-one], under “read-out: p-S6 IC50”, the IC50 worked out at 113 nM.
As for `COc1cc(-c2ccc3ncc4c(c3c2)n(-c2ccc(F)nc2C)c(=O)n4C)cnc1CO` [Example 7.10, 1-(6-Fluoro-2-methyl-pyridin-3-yl)-8-(6-hydroxymethyl-5-methoxy-pyridin-3-yl)-3-methyl-1,3-dihydro-imidazo[4,5-c]quinolin-2-one], the IC50 (read-out: p-S6 IC50) came to 15 nM.
With `COc1ccc(-n2c(=O)n(C)c3cnc4ccc(-c5cncc(N6CCC6)c5)cc4c32)c(OC)n1` [Example 8.11, 8-(5-Azetidin-1-yl-pyridin-3-yl)-1-(2,6-dimethoxy-pyridin-3-yl)-3-methyl-1,3-dihydro-imidazo[4,5-c]quinolin-2-one], the IC50 (read-out: p-S6 IC50) is 1 nM.
Take `COc1ccc(-n2c(=O)n(C)c3cnc4ccc(-c5cnc(C(OC)OC)c(OC)c5)cc4c32)c(OC)n1` [Example 8.13, 8-(6-Dimethoxymethyl-5-methoxy-pyridin-3-yl)-1-(2,6-dimethoxy-pyridin-3-yl)-3-methyl-1,3-dihydro-imidazo[4,5-c]quinolin-2-one]: the IC50 (read-out: p-S6 IC50) stood at 15 nM.
Turning to `COc1cc(-c2ccc3ncc4c(c3c2)n(-c2ccc(N3CCCC3)nc2C)c(=O)n4C)cnc1CO` [Example 25.4, 8-(6-Hydroxymethyl-5-methoxy-pyridin-3-yl)-3-methyl-1-(2-methyl-6-pyrrolidin-1-yl-pyridin-3-yl)-1,3-dihydro-imidazo[4,5-c]quinolin-2-one], where the note is “read-out: p-S6 IC50”, the IC50 was 7 nM.
Take `Cc1nc(N2CCC(O)C2)ccc1-n1c(=O)n(C)c2cnc3ccc(-c4cncc(C(C)(C)O)c4)cc3c21` (stereo not shown) [Example 27.5, 8-[5-(1-Hydroxy-1-methyl-ethyl)-pyridin-3-yl]-1-[6-(3-hydroxy-pyrrolidin-1-yl)-2-methyl-pyridin-3-yl]-3-methyl-1,3-dihydro-imidazo[4,5-c]quinolin-2-one]: for the setting “read-out: p-S6 IC50”, the IC50 stood at 33 nM.
On to `CNc1ncc(-c2ccc3ncc4c(c3c2)n(-c2ccc(N3CCC(OC)C3)nc2C)c(=O)n4C)cn1` (stereo not shown) [Example 28.2, 1-[6-(3-Methoxy-pyrrolidin-1-yl)-2-methyl-pyridin-3-yl]-3-methyl-8-(2-methylamino-pyrimidin-5-yl)-1,3-dihydro-imidazo[4,5-c]quinolin-2-one], for which, under “read-out: p-S6 IC50”, the IC50 is 1 nM.
As for `COc1cc(-c2ccc3ncc4c(c3c2)n(-c2ccc(N3CCC(OC)C3)nc2C)c(=O)n4C)cnc1CO` (stereo not shown) [Example 28.3, 8-(6-Hydroxymethyl-5-methoxy-pyridin-3-yl)-1-[6-(3-methoxy-pyrrolidin-1-yl)-2-methyl-pyridin-3-yl]-3-methyl-1,3-dihydro-imidazo[4,5-c]quinolin-2-one], the IC50 (read-out: p-S6 IC50) was 8 nM.
Same read-out and setting: the same measure for `Cc1nc(N2CC(O)C2)ccc1-n1c(=O)n(C)c2cnc3ccc(-c4cncc(C(C)(C)O)c4)cc3c21` [Example 29.1, 1-[6-(3-Hydroxy-azetidin-1-yl)-2-methyl-pyridin-3-yl]-8-[5-(1-hydroxy-1-methyl-ethyl)-pyridin-3-yl]-3-methyl-1,3-dihydro-imidazo[4,5-c]quinolin-2-one]: 15 nM; for `CNc1ncc(-c2ccc3ncc4c(c3c2)n(-c2ccc(N3CC[C@H](O)C3)nc2C)c(=O)n4C)cc1Cl` [Example 32.4, 8-(5-Chloro-6-methylamino-pyridin-3-yl)-1-[6-((S)-3-hydroxy-pyrrolidin-1-yl)-2-methyl-pyridin-3-yl]-3-methyl-1,3-dihydro-imidazo[4,5-c]quinolin-2-one]: 4 nM; for `COc1cc(-c2ccc3ncc4c(c3c2)n(-c2ccc(N3CC[C@H](O)C3)nc2C)c(=O)n4C)cnc1CO` [Example 32.7, 8-(6-Hydroxymethyl-5-methoxy-pyridin-3-yl)-1-[6-((S)-3-hydroxy-pyrrolidin-1-yl)-2-methyl-pyridin-3-yl]-3-methyl-1,3-dihydro-imidazo[4,5-c]quinolin-2-one]: 21.4 nM.
Consider `CNc1ncc(-c2ccc3ncc4c(c3c2)n(-c2ccc(N3CC[C@@H](O)C3)nc2C)c(=O)n4C)cn1` [Example 34.1, 1-[6-((R)-3-Hydroxy-pyrrolidin-1-yl)-2-methyl-pyridin-3-yl]-3-methyl-8-(2-methylamino-pyrimidin-5-yl)-1,3-dihydro-imidazo[4,5-c]quinolin-2-one], for which the IC50 (read-out: p-S6 IC50) is 3 nM.
Regarding `CCNc1cc(-c2ccc3ncc4c(c3c2)n(-c2ccc(N3CC(F)(F)C(F)(F)C3)nc2C)c(=O)n4C)cnc1CO` [Example 35.2, 8-(5-Ethylamino-6-hydroxymethyl-pyridin-3-yl)-3-methyl-1-[2-methyl-6-(3,3,4,4-tetrafluoro-pyrrolidin-1-yl)-pyridin-3-yl]-1,3-dihydro-imidazo[4,5-c]quinolin-2-one], the IC50 (read-out: p-S6 IC50) was 1 nM.
